The source of these data is ChEMBL document CHEMBL1201862, “PubChem BioAssay data set” (2004).

Each structure is given as a SMILES string.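 Values below derive from 48-hour exposures of cells grown in 96-well plates, with endpoints linearly interpolated between the two concentrations bracketing the appropriate inhibition level. At the GI50, growth is halved.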 Active and inactive are the calls of the source. Rule as the data show it: active = GI50 up to about 1.1 µM and inactive = higher.

Among the test systems are SW-620; TK-10; MDA-MB-435; SF-295; CCRF-CEM; UACC-257; UACC-62; A549; HCT-15; U-251; MDA-MB-231; CAKI-1; SNB-75; M14; OVCAR-8; SN12C; SK-MEL-2; NCI-H460; MOLT-4; UO-31.
Holding throughout (test): NCI-60 cell line screen, 48 h

For the compound `CC12CCCC(O)C1CCC1=CC3(CCC12)SCCS3` (centres undefined), the GI50 in the experiment with SW-620 is > 10 µM (inactive); in the experiment with TK-10, > 10 µM (inactive); in the experiment on MDA-MB-435, > 10 µM (inactive); in the experiment with SF-295, > 10 µM (inactive); with CCRF-CEM, 5.83 µM (inactive); in the experiment with UACC-257, > 10 µM (inactive). Besides, the GI50 in the experiment with UACC-62 was > 10 µM (inactive); in the experiment with A549, > 10 µM (inactive); with HCT-15 it was greater than 10 µM; in the experiment with U-251 it was > 10 µM (inactive); in the experiment on MDA-MB-231 it was > 10 µM (inactive); in the experiment on CAKI-1, > 10 µM (inactive). The GI50 in the experiment on SNB-75, in the experiment with M14, with OVCAR-8 and with SN12C was > 10 µM (inactive) throughout.
In the case of `CCCCCC(CO)C(O)(C(F)(F)F)C(F)(F)F` (centres undefined), the GI50 in the experiment with SW-620, with TK-10, in the experiment with SK-MEL-2, in the experiment with MDA-MB-435, in the experiment on SF-295 and with UACC-257 was > 10 µM (inactive) in each case. For the same compound, the GI50 is > 10 µM (inactive) with NCI-H460; > 10 µM (inactive) in the experiment with UACC-62; > 10 µM (inactive) in the experiment with MOLT-4; > 10 µM (inactive) in the experiment on A549; greater than 10 µM with HCT-15; > 10 µM (inactive) in the experiment on U-251. The GI50 with MDA-MB-231, in the experiment with CAKI-1, with SNB-75, with M14, in the experiment on OVCAR-8 and in the experiment with SN12C was > 10 µM (inactive) throughout.
Take `COC(=O)c1c(C)cccc1C1CN=NC12Cc1ccc(C)cc1C2=O` (centres undefined): the GI50 was 41 µM (inactive) in the experiment with SW-620; > 100 µM (inactive) with TK-10; 32.7 µM (inactive) in the experiment with MDA-MB-435; 36.1 µM (inactive) in the experiment with UO-31; 65.9 µM (inactive) in the experiment with SF-295; 32.4 µM (inactive) in the experiment on CCRF-CEM. Besides, the GI50 is 49.1 µM (inactive) in the experiment with UACC-257; 15 µM (inactive) in the experiment with NCI-H460; 32.6 µM (inactive) with UACC-62; 27.4 µM (inactive) in the experiment with MOLT-4; 33.5 µM (inactive) in the experiment with A549; 50.2 µM with HCT-15. Besides, the GI50 in the experiment on U-251 is 41.9 µM (inactive); with MDA-MB-231 it was 47.1 µM (inactive); in the experiment with CAKI-1 it was > 100 µM (inactive); with SNB-75, 57.5 µM (inactive); in the experiment with M14, 38.8 µM (inactive); in the experiment on OVCAR-8, 43.2 µM (inactive). In the experiment on SN12C, the GI50 is 48.4 µM (inactive).
Regarding `C[Si](C)(C)c1ccc(-c2c3ccc(-c4cc(Br)cc(Br)c4)nc3nc3nc(-c4cc(Br)cc(Br)c4)ccc23)cc1`, the GI50 in the experiment on TK-10, in the experiment with SK-MEL-2, with MDA-MB-435, in the experiment with UO-31, in the experiment on SF-295 and in the experiment with UACC-257 was > 100 µM (inactive) in each case. Moreover, the GI50 in the experiment on NCI-H460 was > 100 µM (inactive); in the experiment with UACC-62 it was > 100 µM (inactive); in the experiment with A549, > 100 µM (inactive); in the experiment on HCT-15 it was greater than 100 µM; in the experiment with U-251, > 100 µM (inactive); in the experiment on MDA-MB-231, > 100 µM (inactive). For the same compound, the GI50 with CAKI-1, with SNB-75, in the experiment with M14 and in the experiment on SN12C was > 100 µM (inactive) throughout.
